Assay results: US20140080886A1, “Methods for Treating HCV” (priority 2012, published 2014)
Read-outs that look alike come from different tables or passages of the source.

Columns and labels:
Format in all cases: cell-based
[1] = system: HCV replicon containing NS5A from genotype 3a; assay: Stable 1b-Con1 replicon cell line containing a portion of NS5A from genotype 3a (luciferase); details: Hepatitis C virus
Procedure: (§1) This replicon construct contains a NotI restriction site upstream of NS5A, and a BlpI restriction site just after NS5A amino acid 214. Viral RNA from infected subjects was isolated according to Middleton et al., J VIROL METHODS 145:137-145 (2007) and Tripathi et al., ANTIVIRAL RES 73:40-49 (2007). RT-PCR was conducted on the RNA to generate a DNA fragment encoding NS5A amino acids 1-214. The PCR fragment incorporated NotI and BlpI compatible ends, and this fragment was ligated into a plasmid containing the 1b-Con1 replicon. Stable cell lines were generated by introducing these constructs into Huh-7 cells.
(§2) Briefly, replicon-containing cells were seeded into 96-well plates at a density of 5000 cells per well in 100 μl DMEM containing 5% FBS. The following day, compounds were diluted in dimethyl sulfoxide (DMSO) to generate a 200× stock in a series of eight half-log dilutions. The dilution series was then further diluted 100-fold in the medium containing 5% FBS. […] Luciferin solution (50 μl, Promega) was added to each well, and luciferase activity was measured with a Victor II luminometer (Perkin-Elmer). The percent inhibition of HCV RNA replication was calculated for each compound concentration and the EC50 value was calculated using nonlinear regression curve fitting to the 4-parameter logistic equation and GraphPad Prism 4 software (Halfman, METHODS ENZYMOL 74 Pt C: 481-497 (1981)). […]

[2] = system: HCV replicon containing NS5A from genotype 6a; assay: Stable 1b-Con1 replicon cell line containing a portion of NS5A from genotype 6a (luciferase); details: Hepatitis C virus
Procedure: as §1, §2

[3] = system: HCV replicons containing NS5A genes from genotype 2a HCV infected humans; assay: Transient replicon (shuttle vector) assay with NS5A genes from patient isolates, genotype 2a; details: Hepatitis C virus
[4] = system: HCV replicon containing NS5A from genotype 2b; assay: Stable 1b-Con1 replicon cell line containing a portion of NS5A from genotype 2b (luciferase); details: Hepatitis C virus
Procedure: as §1, §2

[5] = system: HCV replicon containing NS5A from genotype 2a; assay: Stable 1b-Con1 replicon cell line containing a portion of NS5A from genotype 2a (luciferase); details: Hepatitis C virus
Procedure: as §1, §2

[6] = system: HCV replicons containing NS5A genes from genotype 3a HCV infected humans; assay: Transient replicon (shuttle vector) assay with NS5A genes from patient isolates, genotype 3a
[7] = system: HCV replicons containing NS5A genes from genotype 6a HCV infected humans; assay: Transient replicon (shuttle vector) assay with NS5A genes from patient isolates, genotype 6a
[8] = system: HCV genotype 1a-H77 replicon; assay: HCV stable subgenomic replicon cell culture assay (luciferase reporter), genotype 1a-H77; details: Hepatitis C virus
[9] = system: HCV replicons containing NS5A genes from genotype 2b HCV infected humans; assay: Transient replicon (shuttle vector) assay with NS5A genes from patient isolates, genotype 2b
[10] = system: HCV genotype 1b-Con1 replicon; assay: HCV stable subgenomic replicon cell culture assay (luciferase reporter), genotype 1b-Con1; details: Hepatitis C virus
[11] = system: HCV replicon containing NS5A from genotype 5a; assay: Stable 1b-Con1 replicon cell line containing a portion of NS5A from genotype 5a (luciferase); details: Hepatitis C virus
Procedure: as §1, §2

[12] = system: HCV replicons containing NS5A genes from genotype 1b HCV infected humans; assay: Transient replicon (shuttle vector) assay with NS5A genes from patient isolates, genotype 1b
[13] = system: HCV replicon containing NS5A from genotype 4a; assay: Stable 1b-Con1 replicon cell line containing a portion of NS5A from genotype 4a (luciferase); details: Hepatitis C virus
Procedure: as §1, §2

[14] = read-out: Mean EC50, pM, ± Std. Dev.

For `COC(=O)N[C@H](C(=O)N1CCC[C@H]1C(=O)Nc1ccc([C@@H]2CC[C@@H](c3ccc(NC(=O)[C@@H]4CCCN4C(=O)[C@@H](NC(=O)OC)C(C)C)cc3)N2c2ccc(C(C)(C)C)cc2)cc1)C(C)C` [Compound 1, dimethyl (2S,2′S)-1,1′-((2S,2′S)-2,2′-(4,4′-((2S,5 S)-1-(4-tert-butylphenyl)pyrrolidine-2,5-diyl)bis(4,1-phenylene))bis(azanediyl)bis(oxomethylene)bis(pyrrolidine-2,1-diyl))bis(3-methyl-1-oxobutane-2,1-diyl)dicarbamate], the EC50 ([1]; read-out: EC50 value) was < 20 pM, the EC50 [1, 14] was 19.3 ± 5.8 pM and the EC50 ([2]; read-out: EC50 value) was < 500 pM. It also gave an EC50 [2, 14] of 415 ± 97 pM, an EC50 ([3]; Genotype 2a, isolate 34021) of 5.07 pM and an EC50 ([3]; Genotype 2a, isolate 84836) of 11.3 pM. It also gave an EC50 ([3]; Genotype 2a, isolate 88935) of 2.56 pM, an EC50 ([3]; Genotype 2a, isolate 88939) of 2.03 pM and an EC50 ([3]; Genotype 2a, isolate 91106) of 3.39 pM. It also gave an EC50 ([3]; Genotype 2a, isolate 10124423) of 3.46 pM, an EC50 ([3]; Genotype 2a, isolate U01) of 4.79 pM and an EC50 ([3]; read-out: EC50, pM, Mean ± Std. Dev., mean of the genotype 2a isolates (methionine at NS5A position 31)) of 3.8 pM. The EC50 ([4]; read-out: EC50 value) was < 20 pM, the EC50 [4, 14] was 4.3 ± 1.2 pM and the EC50 ([5]; read-out: EC50 value) was < 20 pM. It also gave an EC50 [5, 14] of 12.4 ± 2.7 pM, an EC50 ([6]; Genotype 3a, isolate 55500, variant K30 (A30K)) of 55.2 pM and an EC50 ([6]; Hepatitis C virus, Genotype 3a, isolate 7153-55) of 2.32 pM. For the same compound, the EC50 ([6]; Hepatitis C virus, Genotype 3a, isolate 9110-47) was 3.87 pM, the EC50 ([6]; Hepatitis C virus, Genotype 3a, isolate 48557) was 11.4 pM and the EC50 ([6]; Hepatitis C virus, Genotype 3a, isolate 55500, variant K30 (A30K)) was 55 pM. For the same compound, the EC50 ([6]; Hepatitis C virus, Genotype 3a, isolate 55510) was 3.03 pM, the EC50 ([6]; Hepatitis C virus, Genotype 3a, isolate 55534) was 3.28 pM and the EC50 ([6]; Hepatitis C virus, Genotype 3a, isolate 57223) was 4.14 pM. It also gave an EC50 ([6]; Hepatitis C virus, Genotype 3a, isolate 57314) of 2.02 pM, an EC50 ([6]; Hepatitis C virus, Genotype 3a, isolate 85501) of 3.05 pM and an EC50 ([6]; Hepatitis C virus, Genotype 3a, isolate 89241, variant V28) of 2.71 pM. It also gave an EC50 ([6]; Hepatitis C virus, Genotype 3a, isolate 95079) of 15.2 pM, an EC50 ([6]; Hepatitis C virus, Genotype 3a, isolate 9810069) of 2.52 pM and an EC50 ([6]; Hepatitis C virus, read-out: EC50, pM, Mean ± Std. Dev., mean of 12 of the 13 genotype 3a samples (without the A30K sample)) of 4.5 pM. For the same compound, the EC50 ([6]; read-out: EC50, pM, Mean ± Std. Dev., mean of 12 of the 13 genotype 3a samples (without the A30K sample)) was 4.54 ± 4.26 pM, the EC50 ([7]; Hepatitis C virus, isolate 1110880, variant L28) was 42 pM and the EC50 ([7]; Hepatitis C virus, isolate 1110880-L28F, variant F28 (L28F mutation introduced)) was 68 pM. The EC50 ([7]; isolate 1110880, variant L28) was 42.3 pM, the EC50 ([7]; isolate 1110880-L28F, variant F28 (L28F mutation introduced)) was 68 pM and the EC50 ([8]; Genotype 1a-H77 replicon, 0% human plasma (5% fetal bovine serum), read-out: Mean EC50, pM, ± Std. Dev.) was 14.1 ± 6.8 pM. For the same compound, the EC50 ([8]; against HCV genotype 1a (summary statement), read-out: EC50 value) was < 20 pM, the EC50 ([8]; genotype 1a and 1b replicons together, in the presence of 5% FBS, read-out: mean EC50 values) was 5 to 14 pM and the EC50 ([9]; Hepatitis C virus, Genotype 2b, isolate 48477) was 1.11 pM. For the same compound, the EC50 ([9]; Hepatitis C virus, Genotype 2b, isolate 51629, variant F28) was 44.7 pM, the EC50 ([9]; Hepatitis C virus, Genotype 2b, isolate 9992612) was 5.15 pM and the loss in activity ([9]; genotype 2b sample containing L28F variant) was 75 fold. For the same compound, the EC50 ([9]; read-out: EC50, pM, Mean ± Std. Dev., mean of 13/14 genotype 2b samples (without the L28F sample)) was 1.08 ± 1.23 pM, the EC50 ([10]; Genotype 1b-Con1 replicon, 0% human plasma (5% fetal bovine serum), read-out: Mean EC50, pM, ± Std. Dev.) was 5 ± 1.9 pM and the EC50 ([10]; against HCV genotype 1b (summary statement), read-out: EC50 value) was < 20 pM. The EC50 ([11]; read-out: EC50 value) was < 20 pM, the EC50 [11, 14] was 4.3 ± 0.9 pM and the EC50 ([12]; Hepatitis C virus, Genotype 1b, isolate 1393) was 1.15 pM. For the same compound, the EC50 ([12]; Hepatitis C virus, Genotype 1b, isolate 4377) was 1.53 pM, the EC50 ([12]; Hepatitis C virus, Genotype 1b, isolate 4386) was 1.21 pM and the EC50 ([12]; Hepatitis C virus, Genotype 1b, isolate 4410) was 1.2 pM. It also gave an EC50 ([12]; Hepatitis C virus, Genotype 1b, isolate 9432) of 1.12 pM, an EC50 ([12]; Hepatitis C virus, read-out: EC50, pM, Mean ± Std. Dev, mean of the 11 genotype 1b clinical isolates) of 1 pM and an EC50 ([12]; read-out: EC50, pM, Mean ± Std. Dev, mean of the 11 genotype 1b clinical isolates) of 1.03 ± 0.23 pM. The EC50 ([13]; read-out: EC50 value) was < 20 pM and the EC50 [13, 14] was 1.71 ± 0.88 pM.
